The test system of one test is RT-112. Kind of test: Cellular Proliferation Assay (Cell Counting Kit-8), RT-112. To be noted: Homo sapiens; RT-112 cells, 72 hours. It is filed as cell-based. How it is done:
(§1) Example 26: Cellular Proliferation Assay
(§2) • 1. Cell Line • KG-1 (ATCC Accession No. CCL-246), • SNU-16 (ATCC Accession No. CRL-5974), • RT-112 (ECACC Accession No. 85061106) • 2. Assay Protocol • FGFR related cancer cell proliferation is measured in 96-well plates using Cell Counting Kit-8 (Dojindo CK04-13). • Seed 30000 cells/well of KG1, 5000 cells/well of SNU16, and 1000 cells/well of RT112 in a volume of 100 μL/well in growth media. • After 24 hours, dilute the test compound to 10, 3.3, 1.1, 0.37, 0.12, 0.04, 0.013, 0.004 μM, keeping the DMSO concentration at 5%. • Add 10 μL of 8-point compound series to the wells of culturing cells. • Incubate at 37° C. and 5% CO2 for 72 hours • Add 10 μL/well of CCkit8 and incubate at 37° C. and 5% CO2 for an hour • Detect the optical density of each well at 450 nm on Labsystems Multiskan K3. • 3. Data Analysis
(§3) [formula] Note: • ODcompound well represents the optical density of cells treated with compound. • ODcell well represents the optical density of cells without compounds treatment.(only 0.5% DMSO) • ODcontrol well represents the optical density of culture media background • IC50: determined with add-in software for Microsoft Excel, XLfit™ (version 2.0) from ID Business Solutions (Guildford, UK).
(Tetrazolium dyes change colour on reduction, which living cells bring about.)

The target in the next test is Recombinant human FGFR1 (Homo sapiens, UniProt P11362). Kind of test: Transcreener Kinase Assay of FGFR1. It is filed as biochemical. The note with it: read-out: FGFR1 (FP) IC50. Here is the method:
(§4) • 1. […] Prepare Solution • Test compounds were solved in DMSO and were diluted with assay buffer to 5 folds of final concentration keeping the DMSO concentration at 5%. Further dilution are needed to make final concentrations are at 1, 0.33, 0.11, 0.037, 0.012, 0.004, 0.0014, 0.0005 μM; (the final concentration of DMSO is 1%). • Enzyme/Substrate stock Preparation: Recombinant human FGFR1 and Poly E4Y are both diluted in assay buffer.
• 3. Enzymatic Reaction • In a 96-well plate, add 5 μL of diluted solution of test compound or control solution. (positive control: 5 μL of 5% DMSO; negative control: 5 μL of 500 mM EDTA) into desired wells respectively; • Add 10 μL of Enzyme/Substrate stock into each well; • Add 10 μL of ATP Diluents to initiate the enzyme reaction and vortex the plate immediately on a plate shaker; • For the wells to make standard curve, add 5 μL of 5% DMSO, 10 μL of assay buffer and 10 μL of ATP standard curve stock. • Incubate the plate for 45 min at 28° C. on a plate shaker in a low speed. • 4. […] Excitation wavelength: 610 nm, Emission wavelength: 670 nm. • 5. Data Analysis
(§5) [formula] Note: • [ADP] in Compound well represents the ADP concentration in test compound well. • [ADP] in Positive control well represents the ADP concentration in 5% DMSO well • Conversion of mP value to ADP concentration is calculated based on the formula which determined by standard curve. And mP value is measured by following the instruction provided by BellBrook Labs. (www.bellbrooklabs.com). • 6. IC50: determined with add-in software for Microsoft Excel, XLfit™ (version 2.0) from ID Business Solutions (Guildford, UK).

Another test concerns SNU-16. Kind of test: Cellular Proliferation Assay (Cell Counting Kit-8), SNU-16. The note with it: Homo sapiens; SNU-16 cells, 72 hours. It is filed as cell-based. How it is done:
as §1, §2, §3

For another test, the target named is Recombinant human FGFR2 (Homo sapiens, UniProt P21802). Nature of the test: Transcreener Kinase Assay of FGFR2. It is filed as biochemical. The note with it: read-out: FGFR2 (FP) IC50. Here is the method:
Example 24: Transcreener Kinase Assay of FGFR2
as §4, with “FGFR2” for “FGFR1”, “buffer. The final concentration is 0.3 ng/μL for FGFR2 and 62.5 ng/μL for Poly E4Y. The mixture is being kept in ice before use; • Prepare ATP Diluents, 10 mM ATP is diluted in assay buffer, the final concentration is 25 μM; • Prepare ADP Diluents: diluted ADP (500 μM) in assay buffer, the final concentration is 25 μM; • Prepare ATP standard curve stock as following:” for “buffer.”
• 3. Enzymatic Reaction • In a 96-well plate, add 5 μL of deluted solution of test compound or control solution. (positive control: 5 μL of 5% DMSO; negative control: 5 μL of 500 mM EDTA) into desired wells respectively; • Add 10 μL of Enzyme/Substrate stock into each well; • Add 10 μL of ATP Diluents to initiate the enzyme reaction and vortex the plate immediately on a plate shaker; • For the wells to make standard curve, add 5 μL of 5% DMSO, 10 μL of assay buffer and 10 μL of ATP standard curve stock. • Incubate the plate for 45 min at 28° C. on a plate shaker in a low speed. • 4. Stoping Reaction and Detecting ADP • Detection Mix Preparation: The mixture is made by dilution with MilliQ water; as following: ADP Alexa633 tracer (1:100), ADP antibody (1:158), and stop & detect buffer (1:10); • Tracer Only control Preparation: The mixture is made by dilution with MilliQ water; as following: ADP Alexa633 tracer (1:100), and stop & detect buffer (1: 10) • No Tracer control Preparation: stop & detect buffer is diluted with MilliQ water; by 10 fold. • Add 25 μL of detection mix, Tracer Only control and No Tracer control into corresponding wells, respectively; • Incubate at 28° C. for 1 h, on a plate shaker in a low speed; • Measure florescence polarization (mP) on TECAN F500. Excitation wavelength: 610 nm, Emission wavelength: 670 nm. • 5. Data Analysis
as §5

In another test the target is FGFR3 kinase (Homo sapiens, UniProt P22607). Kind of test: Z-Lyte Kinase Assay of FGFR3. It is filed as biochemical. How it is done:
Example 25: Z-Lyte Kinase Assay of FGFR3
• 1. Materials and Reagents:
• 2. Reaction Steps: Plate Map
• 3. […] The final concentrations are 1, 0.33, 0.11, 0.037, 0.012, 0.004, 0.0014, 0.00046 μM, and the final concentration of DMSO is 2%. • 3) Kinase/Peptide Mixture (P/K solution): Prepare Kinase/Peptide Mixture by diluting the kinase to 0.7 μg/ml and the Z-LYTE™ Tyr 4 peptide to 4 μM in 1.33× Kinase Buffer. Mix gently by pipetting. • 4) Phospho-peptide Solution (PP solution): Add 0.4 μl of Z-LYTE™ Tyr 4 Phospho-peptide to 99.6 μl of 1.33× Kinase Buffer. • 5) ATP Solution: Prepare ATP Solution by diluting the 10 mM of ATP in 1.33× Kinase Buffer to 300 uM. • 6) Development Solution: Dilute Development Reagent B with Development Buffer as 1:128. • 4. […] Shake the plate for 30 Sec and centrifuge (1500 rpm, 1 min). • Seal the plate to protect from the light and incubate the plate for 1 hour at RT (25-30° C.). • 2) Development reaction • Add 5 μl of the Development solution to all wells. • Shake the plate for 30 Sec and centrifuge (1500 rpm, 1 min). • Seal the plate to protect from the light and incubate the plate for 1 hour at RT (25-30° C.). • 3) Stop and Read • Add 5 μl of the Stop reagent to all wells. • Shake the plate for 30 Sec and centrifuge (1500 rpm, 1 min). • Measure the value of Coumarin (Ex400 nm, Em445 nm) and fluorescein (Ex400 nm, Em520 nm), respectively. • 5. Data Analysis Emission Ratio(ER)=Coumarin Emission (445 nm)/Fluorescein Emission (520 nm) % Phosphorylation=1−[ER×C3520nm-C3445nm]/[(C1445nm-C3445nm)+ER×(C3520nm−C1520nm)] Inhibition rate (IR)=1−% Photest Cpd/% PhoC2 • 6. IC50 Value: determined with add-in software for Microsoft Excel, XLfit™ (version 2.0) from ID Business Solutions (Guildford, UK)

A further test deals with KG-1. Nature of the test: Cellular Proliferation Assay (Cell Counting Kit-8), KG-1. To be noted: Homo sapiens; KG-1 cells, 72 hours; read-out: KG1 IC50. It is filed as cell-based. How it is done:
as §1, §2, §3

Structures are written as SMILES.

Sequence of Recombinant human FGFR2 (P21802 22-821): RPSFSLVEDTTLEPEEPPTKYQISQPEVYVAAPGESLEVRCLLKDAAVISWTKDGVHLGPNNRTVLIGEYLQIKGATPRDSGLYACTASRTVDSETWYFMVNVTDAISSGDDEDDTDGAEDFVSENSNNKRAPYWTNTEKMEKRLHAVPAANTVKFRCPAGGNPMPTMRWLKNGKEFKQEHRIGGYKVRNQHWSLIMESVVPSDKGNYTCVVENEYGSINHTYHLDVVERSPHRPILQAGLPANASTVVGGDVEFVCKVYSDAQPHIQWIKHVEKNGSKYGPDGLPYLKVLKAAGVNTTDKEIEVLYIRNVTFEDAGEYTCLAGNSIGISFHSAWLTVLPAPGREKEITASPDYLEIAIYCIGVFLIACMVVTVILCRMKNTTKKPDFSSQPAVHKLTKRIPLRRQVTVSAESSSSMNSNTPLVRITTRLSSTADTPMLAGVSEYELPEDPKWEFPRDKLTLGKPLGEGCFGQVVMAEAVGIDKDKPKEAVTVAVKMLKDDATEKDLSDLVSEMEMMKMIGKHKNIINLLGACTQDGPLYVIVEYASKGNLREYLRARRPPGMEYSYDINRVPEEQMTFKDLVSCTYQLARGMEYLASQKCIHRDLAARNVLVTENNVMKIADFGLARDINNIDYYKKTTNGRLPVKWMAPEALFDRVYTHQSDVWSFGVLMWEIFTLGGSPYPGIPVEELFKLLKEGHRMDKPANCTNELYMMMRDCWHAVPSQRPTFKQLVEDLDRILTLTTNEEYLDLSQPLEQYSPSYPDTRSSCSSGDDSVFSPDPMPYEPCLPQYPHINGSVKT
Sequence of Recombinant human FGFR1 (P11362 22-822): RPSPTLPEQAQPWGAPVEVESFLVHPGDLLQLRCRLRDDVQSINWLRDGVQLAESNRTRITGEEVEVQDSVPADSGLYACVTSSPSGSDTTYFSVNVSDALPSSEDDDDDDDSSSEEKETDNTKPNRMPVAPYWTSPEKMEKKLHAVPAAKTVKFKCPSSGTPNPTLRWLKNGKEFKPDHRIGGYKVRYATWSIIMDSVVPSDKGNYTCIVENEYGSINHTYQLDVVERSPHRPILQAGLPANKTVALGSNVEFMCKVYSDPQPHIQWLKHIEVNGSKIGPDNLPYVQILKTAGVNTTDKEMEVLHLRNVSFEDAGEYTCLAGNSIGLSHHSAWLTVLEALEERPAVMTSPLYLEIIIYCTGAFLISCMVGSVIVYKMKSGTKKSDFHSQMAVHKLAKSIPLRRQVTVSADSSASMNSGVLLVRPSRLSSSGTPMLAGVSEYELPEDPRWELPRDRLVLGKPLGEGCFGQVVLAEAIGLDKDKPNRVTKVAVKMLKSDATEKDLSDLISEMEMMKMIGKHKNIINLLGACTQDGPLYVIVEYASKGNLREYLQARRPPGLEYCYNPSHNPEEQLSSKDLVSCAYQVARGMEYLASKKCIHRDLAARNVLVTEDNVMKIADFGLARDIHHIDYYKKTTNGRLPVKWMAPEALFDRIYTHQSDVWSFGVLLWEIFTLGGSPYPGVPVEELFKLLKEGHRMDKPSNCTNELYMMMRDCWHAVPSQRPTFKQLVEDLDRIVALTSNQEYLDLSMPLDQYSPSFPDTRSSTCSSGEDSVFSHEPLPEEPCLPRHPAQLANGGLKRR
Sequence of FGFR3 kinase (P22607 23-806): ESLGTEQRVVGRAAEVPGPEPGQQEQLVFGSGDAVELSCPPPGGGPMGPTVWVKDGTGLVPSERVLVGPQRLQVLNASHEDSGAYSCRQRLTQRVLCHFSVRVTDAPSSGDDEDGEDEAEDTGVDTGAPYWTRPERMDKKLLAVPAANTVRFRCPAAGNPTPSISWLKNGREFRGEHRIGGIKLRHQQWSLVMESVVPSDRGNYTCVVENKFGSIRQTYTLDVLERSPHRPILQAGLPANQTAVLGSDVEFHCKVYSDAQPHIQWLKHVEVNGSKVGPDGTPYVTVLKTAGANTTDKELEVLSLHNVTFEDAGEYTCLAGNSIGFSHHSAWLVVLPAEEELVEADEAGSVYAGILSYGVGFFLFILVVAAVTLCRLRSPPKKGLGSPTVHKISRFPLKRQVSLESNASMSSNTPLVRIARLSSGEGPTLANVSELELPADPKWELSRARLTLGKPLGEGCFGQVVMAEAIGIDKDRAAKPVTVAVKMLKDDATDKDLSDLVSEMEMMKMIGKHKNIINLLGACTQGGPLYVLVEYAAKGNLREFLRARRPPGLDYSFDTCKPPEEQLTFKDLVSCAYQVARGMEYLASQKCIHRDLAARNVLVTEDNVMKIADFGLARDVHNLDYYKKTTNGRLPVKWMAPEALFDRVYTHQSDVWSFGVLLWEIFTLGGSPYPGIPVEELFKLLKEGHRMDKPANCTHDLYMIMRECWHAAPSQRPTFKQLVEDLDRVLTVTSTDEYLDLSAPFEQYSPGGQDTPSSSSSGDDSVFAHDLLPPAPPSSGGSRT

For orientation: IC50 means the concentration that inhibits the measured activity by half. For `C#Cc1ccc(Nc2ncc(OCc3cc(C(=O)NC)cc(OC)c3F)cn2)cn1` [Compound 211], the IC50 is 78 nM in the test on RT-112; 40 nM at Recombinant human FGFR1; 155 nM in the test on SNU-16; 16 nM on Recombinant human FGFR2; 42 nM against FGFR3 kinase; 103 nM with KG-1.

For `CNC(=O)c1cc(COc2cnc(Nc3cccc(OC)c3)nc2)c(F)c(OC)c1` [Compound 212], the IC50 amounted to 57 nM in the test on RT-112; 26 nM at Recombinant human FGFR1; 14 nM in the test on SNU-16; 16 nM on Recombinant human FGFR2; 80 nM on FGFR3 kinase; 59 nM with KG-1.

On to `CNC(=O)c1cc(COc2cnc(Nc3ccc4c(c3)NCC4)nc2)c(F)c(OC)c1` [Compound 214], for which the IC50 in the test on RT-112 was determined as 90 nM; at Recombinant human FGFR1 it was 67 nM; in the test on SNU-16 it was 27 nM; on Recombinant human FGFR2, 25 nM; at FGFR3 kinase, 19 nM; with KG-1 it was 6 nM.

Consider `CNC(=O)c1cc(COc2cnc(Nc3ccc(C(C)=O)cc3)nc2)c(F)c(OC)c1` [Compound 215], for which the IC50 came out at 127 nM in the test with RT-112; 44 nM on Recombinant human FGFR1; 72 nM in the test with SNU-16; 20 nM at Recombinant human FGFR2; 65 nM on FGFR3 kinase; 26 nM in the test on KG-1.

Turning to `CNC(=O)c1cc(COc2cnc(Nc3cccc(NC(C)=O)c3)nc2)c(F)c(OC)c1` [Compound 216], the IC50 in the test on RT-112 amounted to 132 nM; at Recombinant human FGFR1, 10 nM; in the test with SNU-16, 20 nM; on Recombinant human FGFR2, 7 nM; on FGFR3 kinase, 11 nM; in the test with KG-1, 24 nM.

On to `CNC(=O)c1cc(COc2cnc(Nc3ccc(OC)c(OC)c3)nc2)c(F)c(OC)c1` [Compound 218], for which the IC50 in the test on RT-112 stood at 44 nM; on Recombinant human FGFR1, 25 nM; with SNU-16, 7 nM; at Recombinant human FGFR2 it was 12 nM; against FGFR3 kinase, 21 nM; in the test with KG-1, 27 nM.

In the case of `CNC(=O)c1cc(COc2cnc(Nc3ccc(-n4cncn4)cc3)nc2)c(F)c(OC)c1` [Compound 221], the IC50 with RT-112 is 72 nM; at Recombinant human FGFR1, 34 nM; with SNU-16, 27 nM; on Recombinant human FGFR2 it was 11 nM; at FGFR3 kinase, 37 nM; with KG-1, 35 nM.

Consider `CNC(=O)c1cc(COc2cnc(Nc3ccc(-n4ccnn4)cc3)nc2)c(F)c(OC)c1` [Compound 222], for which the concentration for half-maximal inhibition (IC50) is 83 nM with RT-112; 39 nM on Recombinant human FGFR1; 34 nM in the test with SNU-16; 12 nM at Recombinant human FGFR2; 40 nM against FGFR3 kinase; 52 nM in the test with KG-1.

For the molecule `CNC(=O)c1cc(COc2cnc(Nc3ccc(-n4cnnc4)cc3)nc2)c(F)c(OC)c1` [Compound 223], the IC50 with RT-112 was 729 nM; at Recombinant human FGFR1, 29 nM; in the test with SNU-16 it was 51 nM; on Recombinant human FGFR2, 18 nM; at FGFR3 kinase, 20 nM; in the test with KG-1, 102 nM.

`CCN1CCc2cc(Nc3ncc(OCc4cc(C(=O)NC)cc(OC)c4F)cn3)ccc21` [Compound 224]: the IC50 with RT-112 is 234 nM; on Recombinant human FGFR1, 65 nM; with SNU-16, 56 nM; at Recombinant human FGFR2, 27 nM; at FGFR3 kinase it was 56 nM; with KG-1, 63 nM.

On to `CNC(=O)c1cc(COc2cnc(Nc3ccc(CCN(C)C)cc3)nc2)c(F)c(OC)c1` [Compound 225], for which the IC50 in the test with RT-112 worked out at 21 nM; at Recombinant human FGFR1, 26 nM; in the test with SNU-16, 14 nM; on Recombinant human FGFR2, 15 nM; against FGFR3 kinase it was 11 nM; in the test on KG-1, 7 nM.

On to `CNC(=O)c1cc(COc2cnc(Nc3ccc(S(C)(=O)=O)cc3)nc2)c(F)c(OC)c1` [Compound 226], for which the IC50 in the test with RT-112 worked out at 285 nM; at Recombinant human FGFR1, 30 nM; with SNU-16 it was 32 nM; on Recombinant human FGFR2 it was 10 nM; on FGFR3 kinase it was 27 nM; with KG-1, 35 nM.

For `CNC(=O)c1cc(COc2cnc(Nc3cccc(S(C)(=O)=O)c3)nc2)c(F)c(OC)c1` [Compound 227], the IC50 in the test on RT-112 was found to be 85 nM; at Recombinant human FGFR1, 23 nM; in the test with SNU-16 it was 20 nM; at Recombinant human FGFR2, 8 nM; on FGFR3 kinase, 25 nM; in the test with KG-1, 35 nM.

The record behind these values is patent US9701680B2, “Pyrimidine and pyridine compounds and their usage” (HUTCHISON MEDIPHARMA LIMITED, priority 2013, dated 2017).
